Results: ChEMBL document CHEMBL5291721, “A preclinical secondary pharmacology resource illuminates target-adverse drug reaction associations of marketed drugs” (Nat Commun, 2023)

How the values were obtained:
Glucocorticoid receptor = target: T1, Glucocorticoid receptor (Homo sapiens, UniProt P04150)
T1 sequence (P04150 whole entry): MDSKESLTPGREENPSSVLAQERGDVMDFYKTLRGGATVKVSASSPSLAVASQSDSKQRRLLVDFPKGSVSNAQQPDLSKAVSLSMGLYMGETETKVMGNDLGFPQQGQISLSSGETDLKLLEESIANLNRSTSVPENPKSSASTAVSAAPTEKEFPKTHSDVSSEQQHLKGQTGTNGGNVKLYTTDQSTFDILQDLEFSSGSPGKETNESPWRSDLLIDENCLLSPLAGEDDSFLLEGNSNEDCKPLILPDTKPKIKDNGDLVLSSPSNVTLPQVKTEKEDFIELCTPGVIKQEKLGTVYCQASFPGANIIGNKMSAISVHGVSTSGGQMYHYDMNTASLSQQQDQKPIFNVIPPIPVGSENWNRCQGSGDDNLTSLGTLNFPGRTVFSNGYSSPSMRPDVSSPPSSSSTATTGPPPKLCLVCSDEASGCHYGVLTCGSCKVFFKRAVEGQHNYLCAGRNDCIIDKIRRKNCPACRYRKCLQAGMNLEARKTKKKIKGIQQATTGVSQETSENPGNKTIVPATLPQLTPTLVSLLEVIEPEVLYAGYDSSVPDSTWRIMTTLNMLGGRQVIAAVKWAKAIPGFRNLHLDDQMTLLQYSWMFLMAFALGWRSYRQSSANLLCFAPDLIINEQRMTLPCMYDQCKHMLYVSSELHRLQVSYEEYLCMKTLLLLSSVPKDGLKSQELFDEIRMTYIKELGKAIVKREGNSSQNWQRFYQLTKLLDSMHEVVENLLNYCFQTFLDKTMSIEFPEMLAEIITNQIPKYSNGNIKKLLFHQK

[1] = target: Voltage-gated inwardly rectifying potassium channel KCNH2 (Homo sapiens, UniProt Q12809); type: functional
Sequence of Voltage-gated inwardly rectifying potassium channel KCNH2 (Q12809 whole entry): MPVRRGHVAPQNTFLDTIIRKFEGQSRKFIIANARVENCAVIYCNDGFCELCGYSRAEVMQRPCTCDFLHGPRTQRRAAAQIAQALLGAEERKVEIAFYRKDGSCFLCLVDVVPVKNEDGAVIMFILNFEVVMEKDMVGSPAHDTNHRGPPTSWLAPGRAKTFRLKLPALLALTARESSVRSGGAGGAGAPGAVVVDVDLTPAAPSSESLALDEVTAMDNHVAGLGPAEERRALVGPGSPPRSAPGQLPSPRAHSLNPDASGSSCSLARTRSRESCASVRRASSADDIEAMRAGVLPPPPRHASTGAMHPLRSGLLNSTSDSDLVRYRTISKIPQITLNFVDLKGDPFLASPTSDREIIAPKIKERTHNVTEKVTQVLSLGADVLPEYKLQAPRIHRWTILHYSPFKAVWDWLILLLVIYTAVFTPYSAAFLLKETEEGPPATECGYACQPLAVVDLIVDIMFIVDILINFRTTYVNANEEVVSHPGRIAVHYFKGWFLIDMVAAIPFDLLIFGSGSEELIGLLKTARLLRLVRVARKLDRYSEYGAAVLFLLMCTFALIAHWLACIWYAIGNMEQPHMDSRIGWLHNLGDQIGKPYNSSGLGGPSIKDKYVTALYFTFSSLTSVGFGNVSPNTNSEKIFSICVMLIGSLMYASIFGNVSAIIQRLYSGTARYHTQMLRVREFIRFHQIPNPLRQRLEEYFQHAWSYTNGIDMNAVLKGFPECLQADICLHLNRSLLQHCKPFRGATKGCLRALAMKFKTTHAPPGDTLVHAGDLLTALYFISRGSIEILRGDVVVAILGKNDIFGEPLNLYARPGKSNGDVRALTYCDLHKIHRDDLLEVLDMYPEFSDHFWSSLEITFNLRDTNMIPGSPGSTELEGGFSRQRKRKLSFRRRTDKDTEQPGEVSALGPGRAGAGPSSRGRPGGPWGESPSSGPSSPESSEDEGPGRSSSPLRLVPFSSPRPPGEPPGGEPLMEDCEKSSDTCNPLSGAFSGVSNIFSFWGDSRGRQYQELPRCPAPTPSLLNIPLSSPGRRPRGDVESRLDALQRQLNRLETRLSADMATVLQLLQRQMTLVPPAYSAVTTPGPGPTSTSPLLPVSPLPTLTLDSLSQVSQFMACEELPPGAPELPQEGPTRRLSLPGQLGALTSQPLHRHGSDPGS

[2] = target: T2, Alpha-1A adrenergic receptor (Homo sapiens, UniProt P35348); type: functional, cell-based
T2 sequence (P35348 whole entry): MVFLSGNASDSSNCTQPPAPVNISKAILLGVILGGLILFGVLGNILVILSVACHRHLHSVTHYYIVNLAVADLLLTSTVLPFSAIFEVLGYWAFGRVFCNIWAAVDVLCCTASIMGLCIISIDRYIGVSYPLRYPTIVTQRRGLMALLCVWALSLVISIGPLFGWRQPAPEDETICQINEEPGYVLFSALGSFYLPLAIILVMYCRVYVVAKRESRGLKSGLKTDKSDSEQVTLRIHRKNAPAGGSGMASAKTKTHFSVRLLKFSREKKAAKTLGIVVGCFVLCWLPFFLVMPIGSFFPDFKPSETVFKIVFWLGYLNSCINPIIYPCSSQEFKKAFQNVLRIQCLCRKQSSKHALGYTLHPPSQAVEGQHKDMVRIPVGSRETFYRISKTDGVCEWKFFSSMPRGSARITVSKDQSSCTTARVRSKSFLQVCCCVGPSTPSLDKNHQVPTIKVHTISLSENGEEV

[3] = target: T3, Muscarinic acetylcholine receptor M2 (Homo sapiens, UniProt P08172); type: functional, cell-based
T3 sequence (P08172 whole entry): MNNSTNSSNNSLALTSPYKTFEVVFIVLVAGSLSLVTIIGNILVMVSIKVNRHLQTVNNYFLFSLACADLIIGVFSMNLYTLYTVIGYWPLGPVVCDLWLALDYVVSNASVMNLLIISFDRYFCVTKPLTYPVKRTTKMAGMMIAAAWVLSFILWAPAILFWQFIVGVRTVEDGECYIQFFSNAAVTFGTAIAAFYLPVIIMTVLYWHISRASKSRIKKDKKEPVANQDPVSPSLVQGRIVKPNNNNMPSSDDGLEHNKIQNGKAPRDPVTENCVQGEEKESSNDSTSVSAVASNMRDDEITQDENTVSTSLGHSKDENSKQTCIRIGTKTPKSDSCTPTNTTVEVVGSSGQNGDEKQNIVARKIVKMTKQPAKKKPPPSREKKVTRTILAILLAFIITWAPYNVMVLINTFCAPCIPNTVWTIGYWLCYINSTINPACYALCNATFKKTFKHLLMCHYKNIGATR

[4] = target: T4, Type-1 angiotensin II receptor (Homo sapiens, UniProt P30556)
T4 sequence (P30556 whole entry): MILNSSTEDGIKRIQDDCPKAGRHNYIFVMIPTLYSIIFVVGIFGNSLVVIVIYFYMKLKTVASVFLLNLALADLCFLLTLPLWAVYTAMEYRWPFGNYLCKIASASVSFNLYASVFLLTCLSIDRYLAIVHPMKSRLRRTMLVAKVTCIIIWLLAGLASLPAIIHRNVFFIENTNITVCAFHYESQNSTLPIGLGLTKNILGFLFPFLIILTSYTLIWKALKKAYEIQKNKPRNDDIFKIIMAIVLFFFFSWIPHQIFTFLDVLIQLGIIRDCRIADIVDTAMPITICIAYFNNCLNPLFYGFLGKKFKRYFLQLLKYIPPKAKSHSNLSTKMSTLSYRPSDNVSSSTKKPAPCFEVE

[5] = target: Beta-1 adrenergic receptor (Homo sapiens, UniProt P08588); type: functional
Sequence of Beta-1 adrenergic receptor (P08588 whole entry): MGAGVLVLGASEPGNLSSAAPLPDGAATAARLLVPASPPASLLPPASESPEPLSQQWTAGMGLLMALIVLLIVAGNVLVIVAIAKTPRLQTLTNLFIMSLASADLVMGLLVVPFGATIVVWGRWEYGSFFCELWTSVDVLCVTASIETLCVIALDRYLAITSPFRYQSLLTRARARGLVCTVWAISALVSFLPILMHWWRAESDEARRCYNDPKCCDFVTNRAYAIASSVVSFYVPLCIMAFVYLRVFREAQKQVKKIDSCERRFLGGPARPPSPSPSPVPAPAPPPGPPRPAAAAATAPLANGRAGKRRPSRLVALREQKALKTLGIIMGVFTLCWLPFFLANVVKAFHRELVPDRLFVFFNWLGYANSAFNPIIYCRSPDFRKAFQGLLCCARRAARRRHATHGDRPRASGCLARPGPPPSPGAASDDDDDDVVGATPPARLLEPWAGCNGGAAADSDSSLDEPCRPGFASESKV

[6] = target: Sodium-dependent dopamine transporter (Homo sapiens, UniProt Q01959)
Sequence of Sodium-dependent dopamine transporter (Q01959 whole entry): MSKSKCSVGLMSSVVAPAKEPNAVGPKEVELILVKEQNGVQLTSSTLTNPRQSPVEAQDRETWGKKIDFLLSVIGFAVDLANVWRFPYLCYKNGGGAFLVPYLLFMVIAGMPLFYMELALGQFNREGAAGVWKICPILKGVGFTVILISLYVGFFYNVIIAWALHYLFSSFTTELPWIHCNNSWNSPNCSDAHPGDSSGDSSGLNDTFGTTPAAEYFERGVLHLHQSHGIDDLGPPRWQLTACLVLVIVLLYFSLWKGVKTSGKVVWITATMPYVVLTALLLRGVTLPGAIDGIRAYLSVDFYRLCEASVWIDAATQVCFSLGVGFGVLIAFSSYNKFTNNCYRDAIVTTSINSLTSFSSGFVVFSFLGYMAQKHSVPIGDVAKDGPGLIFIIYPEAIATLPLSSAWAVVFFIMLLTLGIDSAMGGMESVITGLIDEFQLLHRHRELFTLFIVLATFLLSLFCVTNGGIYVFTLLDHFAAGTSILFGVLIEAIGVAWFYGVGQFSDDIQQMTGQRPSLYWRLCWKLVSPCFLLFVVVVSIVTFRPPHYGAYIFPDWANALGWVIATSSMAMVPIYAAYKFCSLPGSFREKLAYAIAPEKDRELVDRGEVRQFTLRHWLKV

[7] = target: Kappa-type opioid receptor (Homo sapiens, UniProt P41145)
Sequence of Kappa-type opioid receptor (P41145 whole entry): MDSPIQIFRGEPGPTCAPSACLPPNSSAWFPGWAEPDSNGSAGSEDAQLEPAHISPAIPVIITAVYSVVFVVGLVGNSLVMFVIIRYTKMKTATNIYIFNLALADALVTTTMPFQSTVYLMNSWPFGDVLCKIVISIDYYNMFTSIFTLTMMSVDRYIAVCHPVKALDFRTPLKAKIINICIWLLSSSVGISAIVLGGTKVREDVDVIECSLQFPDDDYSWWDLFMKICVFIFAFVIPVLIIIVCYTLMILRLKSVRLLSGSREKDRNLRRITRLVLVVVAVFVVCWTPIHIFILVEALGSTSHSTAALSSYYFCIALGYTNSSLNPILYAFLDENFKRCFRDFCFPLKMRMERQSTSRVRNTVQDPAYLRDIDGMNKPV

[8] = target: T5, Alpha-2A adrenergic receptor (Homo sapiens, UniProt P08913); type: functional, cell-based
T5 sequence (P08913 whole entry): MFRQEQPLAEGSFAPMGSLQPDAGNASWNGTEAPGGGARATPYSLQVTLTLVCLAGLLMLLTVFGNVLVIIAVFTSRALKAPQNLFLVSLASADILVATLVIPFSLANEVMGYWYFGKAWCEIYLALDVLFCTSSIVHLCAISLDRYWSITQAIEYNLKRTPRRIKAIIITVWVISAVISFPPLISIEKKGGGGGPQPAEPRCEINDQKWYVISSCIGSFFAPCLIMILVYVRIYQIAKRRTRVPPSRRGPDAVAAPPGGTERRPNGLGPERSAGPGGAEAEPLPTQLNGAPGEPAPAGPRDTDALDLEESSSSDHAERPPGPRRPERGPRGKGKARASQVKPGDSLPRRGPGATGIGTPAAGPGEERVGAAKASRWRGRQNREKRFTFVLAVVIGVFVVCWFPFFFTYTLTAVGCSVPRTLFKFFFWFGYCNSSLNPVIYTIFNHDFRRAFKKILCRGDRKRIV

[9] = target: T5, Alpha-2A adrenergic receptor; type: functional, cell-based; remark: listed apart in the source
[10] = target: Voltage-dependent L-type calcium channel subunit alpha-1C (Rattus norvegicus, UniProt P22002); type: functional
Sequence of Voltage-dependent L-type calcium channel subunit alpha-1C (P22002 whole entry): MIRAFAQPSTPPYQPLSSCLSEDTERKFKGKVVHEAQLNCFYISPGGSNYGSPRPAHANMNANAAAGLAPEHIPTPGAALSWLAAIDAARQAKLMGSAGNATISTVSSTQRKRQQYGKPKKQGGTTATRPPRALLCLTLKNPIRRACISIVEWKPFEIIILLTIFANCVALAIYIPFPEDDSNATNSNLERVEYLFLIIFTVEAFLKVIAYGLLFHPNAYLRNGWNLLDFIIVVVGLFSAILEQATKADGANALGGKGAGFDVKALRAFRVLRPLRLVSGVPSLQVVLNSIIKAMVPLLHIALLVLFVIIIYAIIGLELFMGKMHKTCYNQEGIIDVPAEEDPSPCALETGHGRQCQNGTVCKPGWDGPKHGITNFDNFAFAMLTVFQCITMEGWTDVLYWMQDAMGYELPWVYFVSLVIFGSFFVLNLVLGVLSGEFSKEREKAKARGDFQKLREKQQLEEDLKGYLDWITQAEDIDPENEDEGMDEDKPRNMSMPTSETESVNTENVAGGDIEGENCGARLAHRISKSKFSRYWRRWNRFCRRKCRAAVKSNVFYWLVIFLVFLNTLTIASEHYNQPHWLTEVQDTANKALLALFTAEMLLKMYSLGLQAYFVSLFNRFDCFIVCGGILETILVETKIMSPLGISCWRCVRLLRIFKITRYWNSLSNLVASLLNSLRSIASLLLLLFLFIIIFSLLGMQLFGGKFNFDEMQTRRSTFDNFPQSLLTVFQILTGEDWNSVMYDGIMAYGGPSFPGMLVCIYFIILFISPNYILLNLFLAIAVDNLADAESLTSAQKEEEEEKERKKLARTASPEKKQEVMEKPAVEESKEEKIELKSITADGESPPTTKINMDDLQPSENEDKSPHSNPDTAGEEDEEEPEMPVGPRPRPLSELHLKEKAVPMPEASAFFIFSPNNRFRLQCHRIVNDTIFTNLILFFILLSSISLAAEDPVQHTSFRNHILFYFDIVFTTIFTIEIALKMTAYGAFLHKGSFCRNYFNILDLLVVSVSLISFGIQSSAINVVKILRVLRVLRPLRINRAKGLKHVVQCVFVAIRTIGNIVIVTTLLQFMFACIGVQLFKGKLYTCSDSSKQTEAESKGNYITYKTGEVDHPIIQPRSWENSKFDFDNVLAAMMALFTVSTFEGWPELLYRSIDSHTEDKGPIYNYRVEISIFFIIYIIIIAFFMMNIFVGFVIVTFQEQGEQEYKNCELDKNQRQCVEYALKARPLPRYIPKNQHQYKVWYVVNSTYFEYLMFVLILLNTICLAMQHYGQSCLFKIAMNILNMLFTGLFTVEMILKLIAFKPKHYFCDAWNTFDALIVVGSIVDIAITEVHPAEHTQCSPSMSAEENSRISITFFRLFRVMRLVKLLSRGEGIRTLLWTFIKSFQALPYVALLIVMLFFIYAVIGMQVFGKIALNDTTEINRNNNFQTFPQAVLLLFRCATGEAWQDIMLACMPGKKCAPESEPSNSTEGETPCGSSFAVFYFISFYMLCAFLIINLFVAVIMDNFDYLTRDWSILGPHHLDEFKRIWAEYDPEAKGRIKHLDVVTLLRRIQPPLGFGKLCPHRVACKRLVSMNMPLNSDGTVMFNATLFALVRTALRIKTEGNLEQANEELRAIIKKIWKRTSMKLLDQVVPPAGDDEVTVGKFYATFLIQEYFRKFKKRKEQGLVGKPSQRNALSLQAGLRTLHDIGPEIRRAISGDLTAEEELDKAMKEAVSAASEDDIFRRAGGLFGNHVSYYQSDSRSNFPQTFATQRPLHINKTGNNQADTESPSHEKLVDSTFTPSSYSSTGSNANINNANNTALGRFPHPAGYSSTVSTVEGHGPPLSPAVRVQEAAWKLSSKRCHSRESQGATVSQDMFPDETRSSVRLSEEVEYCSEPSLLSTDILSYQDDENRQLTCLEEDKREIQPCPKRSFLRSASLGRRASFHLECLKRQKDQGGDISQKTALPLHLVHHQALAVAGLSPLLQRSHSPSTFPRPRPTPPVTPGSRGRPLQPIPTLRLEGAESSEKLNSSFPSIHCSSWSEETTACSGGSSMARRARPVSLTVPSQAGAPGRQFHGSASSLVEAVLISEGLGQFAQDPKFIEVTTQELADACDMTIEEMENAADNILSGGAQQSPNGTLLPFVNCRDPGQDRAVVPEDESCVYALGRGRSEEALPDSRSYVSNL
Note: assay procedure not described here.

Row | Compound | AC50 (Glucocorticoid receptor) | AC50 ([1]; read-out: AC50) | AC50 [2] | AC50 [3] | AC50 [4] | AC50 [5] | AC50 [6] | AC50 [7] | AC50 [8] | AC50 [9] | AC50 ([1]; human, cellular components) | AC50 [10]
1 | Brc1c(NC2=NCCN2)ccc2nccnc12 [BRIMONIDINE] | > 30 µM | > 30 µM | 0.645 µM | > 30 µM | > 30 µM | > 30 µM | > 30 µM | > 30 µM | – | – | – | –
2 | NC(=O)CN1CC(O)CC1=O (stereo unspecified) [OXIRACETAM] | > 30 µM | > 30 µM | > 30 µM | > 30 µM | > 30 µM | > 30 µM | > 30 µM | > 30 µM | > 30 µM | > 30 µM | – | –
3 | THIMEROSAL | – | – | – | – | – | – | – | – | – | – | > 30 µM | –
4 | C[C@H]1COc2c(C3(N)CC3)c(F)cc3c(=O)c(C(=O)O)cn1c23 [PAZUFLOXACIN] | > 30 µM | > 30 µM | – | > 10 µM | > 10 µM | > 10 µM | > 10 µM | > 10 µM | > 10 µM | > 10 µM | – | > 10 µM
5 | NC(=O)OCC(COC(N)=O)c1ccccc1 [FELBAMATE] | > 10 µM | > 30 µM | – | > 10 µM | > 10 µM | > 10 µM | > 10 µM | > 10 µM | > 10 µM | > 10 µM | – | > 10 µM
6 | Clc1ccccc1C(c1ccccc1)(c1ccccc1)n1ccnc1 [CLOTRIMAZOLE] | – | – | > 30 µM | > 10 µM | – | > 10 µM | 14.8 µM | 0.746 µM | – | – | – | 13.6 µM
7 | CC(C)(C)NCC(O)COc1cccc2c1CCC(=O)N2 (stereo unspecified) [CARTEOLOL] | > 10 µM | > 30 µM | > 30 µM | > 10 µM | > 10 µM | – | > 10 µM | 11.6 µM | > 10 µM | > 10 µM | – | > 10 µM
8 | CC1(C)CCC(CN2CCN(c3ccc(C(=O)NS(=O)(=O)c4ccc(NCC5CCOCC5)c([N+](=O)[O-])c4)c(Oc4cnc5[nH]ccc5c4)c3)CC2)=C(c2ccc(Cl)cc2)C1 [VENETOCLAX] | – | > 30 µM | – | – | – | – | 22 µM | – | – | – | – | –
9 | O=C1C(O)=C([C@H]2CC[C@H](c3ccc(Cl)cc3)CC2)C(=O)c2ccccc21 [ATOVAQUONE] | – | > 30 µM | > 30 µM | > 30 µM | > 30 µM | > 30 µM | > 30 µM | > 30 µM | > 30 µM | > 30 µM | – | > 30 µM
10 | Cc1nnc2n1-c1ccc(Cl)cc1C(c1ccccc1Cl)=NC2 [TRIAZOLAM] | > 30 µM | > 30 µM | 14 µM | > 10 µM | > 30 µM | > 10 µM | > 30 µM | – | > 10 µM | > 10 µM | – | > 10 µM
11 | Nc1nc(Cl)nc2c1ncn2[C@H]1C[C@H](O)[C@@H](CO)O1 [CLADRIBINE] | > 30 µM | > 30 µM | > 30 µM | > 30 µM | > 30 µM | > 30 µM | > 30 µM | > 30 µM | > 30 µM | > 30 µM | – | –
12 | CC/C(=C(\c1ccccc1)c1ccc(OCCN(C)C)cc1)c1ccccc1 [TAMOXIFEN] | – | – | > 30 µM | > 10 µM | – | 17.6 µM | 12.3 µM | 8.53 µM | > 10 µM | > 10 µM | – | > 10 µM
13 | CC(CC1c2ccccc2CCc2ccccc21)CN(C)C (stereo unspecified) [BUTRIPTYLINE] | – | 2.1 µM | > 30 µM | – | – | – | – | > 30 µM | > 30 µM | > 30 µM | – | –
14 | COc1cccc(C2(O)CCCCC2CN(C)C)c1 (stereo unspecified) [TRAMADOL] | > 30 µM | > 30 µM | > 30 µM | – | > 30 µM | > 10 µM | > 10 µM | > 10 µM | > 10 µM | > 10 µM | – | > 10 µM
15 | COc1ccc2c3c1O[C@H]1[C@@H](O)CC[C@H]4[C@@H](C2)N(C)CC[C@@]341 [DIHYDROCODEINE] | – | > 30 µM | > 30 µM | – | – | – | – | > 30 µM | > 30 µM | > 30 µM | – | –
16 | C#C[C@]1(O)CC[C@H]2[C@@H]3[C@H](C)CC4=C(CCC(=O)C4)[C@H]3CC[C@@]21C [TIBOLONE] | – | > 30 µM | > 30 µM | > 30 µM | > 30 µM | > 30 µM | 27 µM | 19 µM | > 30 µM | > 30 µM | – | > 30 µM
17 | Cc1cc(C(C)(C)C)c(O)c(C)c1CC1=NCCN1 [OXYMETAZOLINE] | – | > 30 µM | – | 23 µM | – | – | > 30 µM | – | – | – | – | –
18 | Cc1c(OCC(F)(F)F)ccnc1C[S+]([O-])c1nc2ccccc2[nH]1 (stereo unspecified) [LANSOPRAZOLE] | > 30 µM | > 30 µM | > 30 µM | > 10 µM | > 30 µM | > 10 µM | > 10 µM | 4.88 µM | > 10 µM | > 10 µM | – | > 10 µM
19 | CO[C@]12C[C@@H](COC(=O)c3cncc(Br)c3)CN(C)[C@@H]1Cc1cn(C)c3cccc2c13 [NICERGOLINE] | – | 0.13 µM | – | – | – | – | – | – | – | – | – | –
20 | COc1ccc(CCNCC(O)COc2cccc(C)c2)cc1OC (stereo unspecified) [BEVANTOLOL] | > 10 µM | 3.41 µM | > 30 µM | > 10 µM | > 10 µM | 0.026 µM | 16.2 µM | > 10 µM | > 10 µM | > 10 µM | – | > 10 µM
